Five compounds from ChEMBL document CHEMBL1150562, “Glánvillic acids A and B and methyl capucinoate A, new metabolites isolated from the Caribbean sponges Plakortis halichondrioides and Plakinastrella onkodes” (J Nat Prod, 2001) can be followed below.

The test system of assay [1] is P388. Nature of the assay: Cytotoxicity against mouse P388 cells. The assay is classed as functional, cell-based.
For assay [2], the system named is P388. Nature of the assay: In vivo cytotoxicity against mouse P388 cells. The assay is classed as functional, organism-based.
The nature of assay [3]: Cytotoxicity against mouse B16-F1 cells. It is filed as functional, cell-based.

≈ marks a conversion by molar mass, not a printed value. Calls of active or inactive are those of the source. The rule behind the calls is not given here.

As a reminder, the IC50 is the concentration that gives 50% inhibition. A lower IC50 goes with greater potency. In turn, `CC/C=C/C(CC)CC(C)CC1(CC)C=C(CC)C(C(=O)O)OO1` (stereo not drawn) returned an IC50 in assay [1] of 0.055 µg/mL (≈ 0.162 µM). Also, the outcome in assay [2] was inactive.

In turn, `COC(=O)C[C@@H]1OO[C@@](C)(/C(C)=C/C(C)=C/Cc2ccccc2)C[C@H]1C` yielded an IC50 in assay [3] of 12 µg/mL (≈ 33.5 µM). The outcome in assay [2] was inactive.

In assay [1], `CC/C=C/C(CC)CC(C)Cc1cc(CC)c(CC(=O)O)o1` (stereo not drawn) [GLANVILLIC ACID A] gave an IC50 above 20 µg/mL.

`CCCC(CC)CC(C)Cc1cc(CC)c(CC(=O)O)o1` (stereo not drawn) [GLNVILLIC ACID B]: the IC50 in assay [1] was above 20 µg/mL.

Regarding `COC(=O)C[C@@H]1OO[C@@](C)(/C(C)=C/C=C/Cc2ccccc2)C[C@H]1C` [METHYL CAPUCINOATE A], the IC50 in assay [3] stood at 12 µg/mL (≈ 34.8 µM). In addition, in assay [2], the result was inactive.
